Measurements from patent US20110218158A1, “DNA CYTOSINE DEAMINASE INHIBITORS” (priority 2008, published 2011).

Target: T1, APOBEC3G (Homo sapiens, UniProt Q9HC16)
T1 construct: expressed in transfected cells; crude lysate treated with RNase A
Assay: Fluorescence-based APOBEC3G DNA cytosine deaminase assay for HTS, APOBEC3G containing cell lysate
Type: biochemical
Conditions: for inhibited cytosine deaminase activity (FIG. 5): LOPAC1280 library screened in quadruplicate, cell lysate
Text: FIG. 4 contains a schematic of a fluorescence based APOBEC3G DNA cytosine deaminase activity assay. The single-strand DNA oligonucleotide substrate has 3 features: i) an APOBEC3G deamination target cite 5′CCCA (with the 3rd C strongly preferred by APOBEC3G), ii) a fluorescent 6-FAM label on the 5′ end (excitable by 490 nm wavelength light) and iii) a 6-FAM ‘quenching’ molecule TAMRA on the 3′ end. This intact ssDNA substrate emits low levels of background fluorescence because the 6-FAM is quenched by the nearby TAMRA. Low-molecular mass (LMM) APOBEC3G, derived from an RNase sensitive high-molecular mass (HMM) cellular complex, efficiently deaminates the indicated cytosine base yielding a uracil. Uracil DNA glycosylase excises the uracil base, which creates an a-basic site that is sensitive to hydrolytic attack by the hydroxide ion of NaOH or heated water (H2O). Finally, cleavage of the ssDNA frees 6-FAM from inhibition by TAMRA and results in fluorescence (490 nm light is used to excite 6-FAM and fluorescence is detected at 517 nm).
APOBEC3G containing cell lysates were prepared from near-confluent APOBEC3G expressing 293 stable cell line (211-21, Harris et al., Cell 2003). DMEM growth medium was aspirated and the cells suspended in 1xPBS, 1 mM EDTA, pH 7.4. The cells were pelleted at 1.2K rpm for 5-10 minutes. The supernatant was aspirated and the tube containing the pelleted cells was placed on ice. Thirty mL of lysis buffer (25 mM HEPES, pH7.4, 150 mM NaCl, 0.5% Triton X-100, 1 mM EDTA, 1 mM MgCl2, 1 mM ZnCl2, 10% Glycerol, and Roche EDTA free complete protease inhibitor (added before use)) was added per 3-5 g cell pellet along with 20 μg/mL RNase A (from Qiagen, catalog no. 19101, 100 mg/ml RNase A solution) and the cells suspended by pipetting. The cells were transferred to a cold homogenizer and homogenized for 10 strokes. […] The protein concentration in the cell lysate was quantified using a Bio-Rad protein assay kit or DC protein assay kit, following the manufacturer's instructions.
A fluorescence-based deaminase activity assay for HTS was performed as follows: 1) 20 μl of the crude cell lysate (15 μg protein, diluted in cell lysis buffer, pH7.4) was placed into 384 well plates using Perkin Elmer flexdrop. […] 5) 3 μl N HCl+27 μl 2 M Tris.Cl (pH7.9) was added using Perkin Elmer flexdrop, mixed by shaking, and fluorescence read with excitation at 492 nm and emission at 517 nm at room temperature in LJL Analyst AD.
A 1280 compound library (LOPAC^1280™, from Sigma-Aldrich) was screened in quadruplicate using the method set forth in Example 1. […] In these experiments, each compound was evaluated a total of four times—twice on one day and twice more on the following day. […]

T1 sequence (Q9HC16 whole entry): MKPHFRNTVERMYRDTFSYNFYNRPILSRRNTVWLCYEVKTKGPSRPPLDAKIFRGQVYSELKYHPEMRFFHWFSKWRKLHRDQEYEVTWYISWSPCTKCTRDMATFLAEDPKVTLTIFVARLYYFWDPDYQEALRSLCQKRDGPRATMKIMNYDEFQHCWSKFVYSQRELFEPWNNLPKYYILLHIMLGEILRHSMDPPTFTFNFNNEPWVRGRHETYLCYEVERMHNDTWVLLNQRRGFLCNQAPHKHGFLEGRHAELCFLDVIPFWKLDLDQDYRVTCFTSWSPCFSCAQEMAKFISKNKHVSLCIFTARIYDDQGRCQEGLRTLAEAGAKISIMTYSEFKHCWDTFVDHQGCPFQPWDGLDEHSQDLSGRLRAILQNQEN

Row | inhibition at 10 µM (repeated screen, cell lysate incubated with 10 μM solution of the compound in DMSO, read-out: inhibition of fluorescence relative to positive controls (primary active)) [%] | Structure (SMILES) | inhibited cytosine deaminase activity (FIG. 5)
1 | – | O=C(O)c1cc[c]([Hg][Cl])cc1 [4-chloromercuribenzoic acid] | Inhibitors of cytosine deaminase
2 | – | O=C(O)C1=CC(=C(c2ccc(O)c(C(=O)O)c2)c2ccc(O)c(C(=O)O)c2)C=CC1=O [ATA] | Inhibitors of cytosine deaminase
3 | – | Cc1nc(N=Nc2cc(S(=O)(=O)O)c3cc([N+](=O)[O-])cc(S(=O)(=O)O)c3c2)c(COP(=O)(O)O)c(C=O)c1O [PPNDS] | Inhibitors of cytosine deaminase
4 | ≥ 35 | Cc1ccc(C(=O)Nc2ccc(S(=O)(=O)O)c3cc(S(=O)(=O)O)cc(S(=O)(=O)O)c23)cc1NC(=O)c1cccc(NC(=O)Nc2cccc(C(=O)Nc3cc(C(=O)Nc4ccc(S(=O)(=O)O)c5cc(S(=O)(=O)O)cc(S(=O)(=O)O)c45)ccc3C)c2)c1 [suramin] | –
